Source: patent publication US6686336B2, “N-terminal D(-)-penicillamine peptides as aldehyde sequestration agents” (Federal Government as represented by the Department of …, priority 2000, dated 2004)

What was measured:
[1] = Test A: Sequestration of AcH in a cell-free system; assay type: biochemical; conditions: AcH 40 nmol, compound 400 nmol, 4.0 mM DTT, pH 7.4, 30 minute incubation at 37° C.; compared with 1 (positive control); FIG. 3
Procedure: Test A: Sequestration of AcH in a cell-free system. AcH (40 nmol) was incubated without (control) and with representative compounds of the invention (400 nmol) in a reaction mixture containing 4.0 mM dithiothreitol (DTT) and 40 mM potassium phosphate buffer (pH 7.4) in a total volume of 1.2 ml. The AcH remaining after a 30 minute incubation period at 37° C. was quantified by headspace GC analysis. DTT was included in the reaction mixture to maintain the thiols in their reduced state.

[2] = cited from earlier work; for AcH sequestration (trapping) in vivo: earlier studies (Nagasawa et al., J. Med. Chem, 1987)
rat hepatocytes = experiment: Test B: Sequestration of AcH in a hepatocyte system; assay type: cell-based; conditions: ethanol 20 mM; for lowering of the concentration of ethanol-derived AcH: compound 1.0 mM (1/20 molar concentration of ethanol), at two hrs, vs ethanol control without dipeptide, FIG. 4
Procedure: Test B: Sequestration of AcH in a hepatocyte system.
Hepatocytes from male Wistar rats were isolated and cultured under conditions previously described. On culture day two, ethanol and representative compounds of the invention were added to the culture medium to final concentrations of 20 mM and 1.0 mM, respectively. After 2 hours, 1.0 ml of medium was removed and added to a semicarbazide/sodium azide mixture and frozen until assayed for AcH by gas chromatography. AcH was measured before the addition of ethanol and representative compounds of the invention and 2 hours after incubation, and the values compared against ethanol control without dipeptides. In experiments with cyanamide (to inhibit AlDH), the cyanamide was added with the ethanol to give a final concentration in the culture medium of 50 mM. Results are depicted in FIGS. 4 and 5.

Row | melting point | Structure (SMILES) | AcH sequestering activity (AcH remaining by headspace GC) [1] | other results
1 |  | N[C@@H](CCS)C(=O)O [L-Homocysteine] | comparable to 1 | AcH sequestration (trapping) in vivo [2]: not to be an effective AcH-trapping agent in vivo; metabolism in vivo ([2]; given as reason for lack of AcH trapping): metabolized too rapidly in vivo
2 | 71 to 75 °C | CC(C)(S)[C@@H](N)C(=O)NCCC(=O)O.Cl [Compound 6d, D-Penicillamyl-β-alanine Hydrochloride] |  | lowering of the concentration of ethanol-derived AcH (rat hepatocytes): 84%
3 |  | NC(C(=O)O)C1(S)CCCC1 (racemic) [Compound 2, β,β-tetramethylene-DL-cysteine] |  | AcH sequestration (trapping) in vivo [2]: best β-mercapto-α-amino acid sequestration agents for AcH in vivo
4 | 263 to 265.5 °C (dec.) | CC(C)[C@H](NC(=O)[C@H](N)C(C)(C)S)C(=O)O.Cl |  | 
5 | 145 to 148 °C | CC(N)(CC(=O)[C@H](N)C(C)(C)S)C(=O)O.Cl (stereo partly drawn) [Compound 6c, D-Penicillamyl-α-aminoisobutyric acid hydrochloride] |  | 
6 | 67 to 71 °C | CC(C)(S)[C@@H](N)C(=O)NCC(=O)O.Cl [Compound 6a, D-Penicillamylglycine Hydrochloride] |  | lowering of the concentration of ethanol-derived AcH (rat hepatocytes): 79%; reduction of ethanol-derived AcH concentration in presence of cyanamide (rat hepatocytes; compound 1.0 mM, cyanamide (AlDH inhibitor) 50 mM, 2 hours, vs control without dipeptide, FIG. 5): 33%
7 |  | N#CN [cyanamide] |  | increase in ethanol-derived AcH (rat hepatocytes; cyanamide in incubation medium (50 mM), control without dipeptide, FIG. 5): 45 fold
8 |  | N[C@@H](CO)C(=O)O [serine] | totally without AcH sequestering activity | 
9 |  | C[C@@H](O)[C@H](N)C(=O)O [threonine] | totally without AcH sequestering activity | 
10 |  | CC(C)(S)[C@@H](N)C(=O)O [Compound 1, D(−)-penicillamine] |  | AcH sequestration (trapping) in vivo [2]: best β-mercapto-α-amino acid sequestration agents for AcH in vivo
11 |  | CSCC[C@H](N)C(=O)O [Methionine] | totally without AcH sequestering activity | 
